The record followed here is ChEMBL document CHEMBL2203150, “CXCR3 antagonists: quaternary ammonium salts equipped with biphenyl- and polycycloaliphatic-anchors” (Bioorg Med Chem, 2011).

One assay addresses T1, C-X-C chemokine receptor type 3 (Homo sapiens, UniProt P49682).
T1 sequence (P49682 whole entry): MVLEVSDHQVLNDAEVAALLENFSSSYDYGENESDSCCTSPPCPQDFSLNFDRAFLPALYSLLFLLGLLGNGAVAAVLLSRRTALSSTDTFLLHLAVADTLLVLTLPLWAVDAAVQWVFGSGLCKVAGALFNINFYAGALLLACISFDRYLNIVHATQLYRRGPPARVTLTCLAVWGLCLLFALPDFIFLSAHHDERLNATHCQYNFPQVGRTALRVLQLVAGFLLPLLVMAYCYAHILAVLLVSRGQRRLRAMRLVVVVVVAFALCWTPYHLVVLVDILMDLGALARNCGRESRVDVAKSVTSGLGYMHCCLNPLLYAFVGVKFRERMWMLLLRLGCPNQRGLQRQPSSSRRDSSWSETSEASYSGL
The experiment in a line: Displacement of [125I]-CXCL10 from human CXCR3 expressed in HEK293 cells. It is filed as cell-based.
Conditions: not given
The Ki is a dissociation constant, usually derived from enzyme kinetics or from competition with a known ligand. The low end stands for a stronger hold on the target, the high end for a looser hold on the target. For `CC(=O)c1cccc(-c2ccc(C[N+](C)(C)CC3=CC[C@H]4C[C@@H]3C4(C)C)cc2)c1`, the Ki was 631 nM. This lies in the sub-micromolar range.

On to `CC1(C)[C@H]2CC=C(C[N+](C)(C)Cc3ccc(-c4cccc([N+](=O)[O-])c4)cc3)[C@@H]1C2`, for which the Ki is 200 nM.

As to `Cc1cccc(-c2ccc(C[N+](C)(C)CC3=CC[C@H]4C[C@@H]3C4(C)C)cc2)c1`, the affinity corresponds to a Ki of 398 nM. Still for that read-out and setting: the result for `CN(CC1=CC[C@H]2C[C@@H]1C2(C)C)Cc1ccc(I)cc1` reads 3160 nM; that for `C[N+](C)(Cc1ccc(I)cc1)CC12CC3CC(CC(C3)C1)C2`, 2000 nM. Still for that read-out and setting: as for `COC(=O)c1cccc(-c2ccc(CN(C)CC3=CC[C@H]4C[C@@H]3C4(C)C)cc2)c1`, the figure is > 316 nM; as for `CC1(C)[C@@H]2CC[C@@]1(C)C(C[N+](C)(C)Cc1ccc(I)cc1)C2` (mixture of isomers), 1580 nM; as for `CN(CC1=CC[C@H]2C[C@@H]1C2(C)C)Cc1ccc(-c2ccc(C(F)(F)F)cc2)cc1`, > 316 nM. On the same count and under the same terms, the result for `CN(CC1=CC[C@H]2C[C@@H]1C2(C)C)Cc1ccccc1I` reads 5010 nM.

Regarding `CN(CC1=CC[C@H]2C[C@@H]1C2(C)C)Cc1ccc(-c2cccc(O)c2)cc1`, the Ki is > 316 nM. The same measure, in the same setting: as for `CC1(C)[C@H]2CC=C(C[N+](C)(C)Cc3ccc4c(c3)Cc3ccccc3-4)[C@@H]1C2`, the figure is 501 nM. Same read-out and setting: as for `CN(CC1=CC[C@H]2C[C@@H]1C2(C)C)Cc1ccc(-c2cccc(N)c2)cc1`, the figure is 6310 nM; as for `CN(CCc1ccc(Cl)cc1)CC1=CC[C@H]2C[C@@H]1C2(C)C`, 5010 nM; as for `CC1(C)[C@H]2CC=C(C[N+](C)(C)Cc3ccccc3)[C@@H]1C2`, 3980 nM. Still for that read-out and setting: as for `Cn1c2ccccc2c2ccc(C[N+](C)(C)CC3=CC[C@H]4C[C@@H]3C4(C)C)cc21`, the figure is 1000 nM; as for `CC1(C)[C@H]2CC=C(C[N+]3(C)CCc4ccccc4C3)[C@@H]1C2` (stereo partly specified), 2510 nM.

As to `CN(CC1=CC[C@H]2C[C@@H]1C2(C)C)Cc1ccc(Cl)cc1`, the Ki is 2510 nM.

`CC1(C)[C@H]2CC=C(C[N+](C)(C)Cc3ccc(-c4cccc(F)c4)cc3)[C@@H]1C2` showed a Ki of 316 nM. On the same count and under the same terms, the result for `CC1(C)[C@H]2CC=C(C[N+](C)(C)Cc3ccc(-c4cccc(O)c4)cc3)[C@@H]1C2` reads 1580 nM.

Regarding `CN(CC1=CC[C@H]2C[C@@H]1C2(C)C)Cc1ccc2c(c1)Cc1ccccc1-2`, the Ki is > 316 nM. The same measure, in the same setting: as for `CN(CC1=CC[C@H]2C[C@@H]1C2(C)C)Cc1ccc(Cl)c(Cl)c1`, the figure is 3160 nM; as for `CN(CC1=CC[C@H]2C[C@@H]1C2(C)C)Cc1ccc(-c2ccc(Cl)cc2)cc1`, > 316 nM; as for `CC1(C)[C@H]2CC=C(C[N+](C)(C)Cc3ccc(-c4ccc(Cl)cc4)cc3)[C@@H]1C2`, 501 nM. On the same count and under the same terms, as for `CN(CC1=CC[C@H]2C[C@@H]1C2(C)C)Cc1ccc2oc3ccccc3c2c1`, the figure is > 316 nM. In the case of `CCN(CC1=CC[C@H]2C[C@@H]1C2(C)C)Cc1ccc(I)cc1`, the Ki is 3980 nM. In turn, `CN(Cc1ccc(I)cc1)CC1C[C@H]2CC[C@]1(C)C2(C)C` (mixture of isomers) showed a Ki of 7940 nM. `CC1(C)[C@H]2CC=C(C[N+](C)(C)Cc3ccc(-c4cc(Cl)cc(Cl)c4)cc3)[C@@H]1C2` showed a Ki of 398 nM. The same measure, in the same setting: as for `COc1ccc(-c2ccc(CN(C)CC3=CC[C@H]4C[C@@H]3C4(C)C)cc2)cc1OC`, the figure is > 316 nM; as for `CC1(C)[C@H]2CC=C(C[N+](C)(C)Cc3ccc(-c4cccc(C(F)(F)F)c4)cc3)[C@@H]1C2`, 501 nM; as for `CC1(C)[C@H]2CC=C(CN3CCc4ccccc4C3)[C@@H]1C2`, 12600 nM. Still for that read-out and setting: as for `C[N+](C)(Cc1ccc(I)cc1)CC1C2CC3CC(C2)CC1C3` (stereo unspecified), the figure is 794 nM; as for `CN(CC1=CC[C@H]2C[C@@H]1C2(C)C)Cc1ccc(-c2cccc([N+](=O)[O-])c2)cc1`, 2000 nM; as for `C[N+](C)(CCC12CC3CC(CC(C3)C1)C2)Cc1ccc(I)cc1`, 631 nM. As to `CC1(C)[C@H]2CC=C(C[N+](C)(C)Cc3ccc(F)cc3)[C@@H]1C2`, the Ki is 1260 nM. Turning to `CN(CC1=CC[C@H]2C[C@@H]1C2(C)C)Cc1ccc(Br)cc1`, the Ki is 3160 nM.

`CN(CCC12CC3CC(CC(C3)C1)C2)Cc1ccc(I)cc1` had a Ki of 5010 nM. The same measure, in the same setting: as for `CN(CC1=CC[C@H]2C[C@@H]1C2(C)C)Cc1cccc(I)c1`, the figure is 7940 nM; as for `COc1ccc(-c2ccc(C[N+](C)(C)CC3=CC[C@H]4C[C@@H]3C4(C)C)cc2)cc1OC`, 501 nM; as for `CC1(C)[C@H]2CC=C(C[N+](C)(C)Cc3ccc(-c4ccoc4)cc3)[C@@H]1C2`, 251 nM. Same read-out and setting: as for `COC(=O)c1cccc(-c2ccc(C[N+](C)(C)CC3=CC[C@H]4C[C@@H]3C4(C)C)cc2)c1`, the figure is 1000 nM; as for `CC1(C)[C@H]2CC=C(C[N+](C)(C)Cc3ccc4oc5ccccc5c4c3)[C@@H]1C2`, 501 nM. The same measure, in the same setting: as for `CC1(C)[C@H]2CC=C(C[N+](C)(C)Cc3ccc(-c4ccc(C(F)(F)F)cc4)cc3)[C@@H]1C2`, the figure is 1260 nM; as for `CC1(C)[C@H]2CC=C(C[N+](C)(C)Cc3ccc(-c4cccc(N)c4)cc3)[C@@H]1C2`, 3160 nM; as for `CC[N+](C)(CC1=CC[C@H]2C[C@@H]1C2(C)C)Cc1ccc(I)cc1` (stereo partly specified), 631 nM.

For the molecule `CC1(C)[C@H]2CC=C(C[N+](C)(C)Cc3cccc(-c4ccccc4)c3)[C@@H]1C2`, the Ki was 3160 nM. As to `CN(CC1=CC[C@H]2C[C@@H]1C2(C)C)Cc1ccc(-c2ccccc2)cc1`, the Ki was 3160 nM. Still for that read-out and setting: as for `CN(CC1=CC[C@H]2C[C@@H]1C2(C)C)Cc1ccc(-c2ccoc2)cc1`, the figure is 6310 nM; as for `CN(CC1=CC[C@H]2C[C@@H]1C2(C)C)Cc1ccc(-c2cc(Cl)cc(Cl)c2)cc1`, > 316 nM; as for `CN(CC1=CC[C@H]2C[C@@H]1C2(C)C)Cc1ccccc1`, 15800 nM. As for `N=C(Nc1ccc(I)cc1)NC1C2CC3CC(C2)CC1C3` (stereo unspecified), the Ki was 3980 nM. On the same count and under the same terms, as for `CC1(C)[C@H]2CC=C(C[N+](C)(C)Cc3cccc(I)c3)[C@@H]1C2`, the figure is 2000 nM; as for `CC1(C)[C@H]2CC=C(C[N+](C)(C)Cc3ccc(-c4ccccc4)cc3)[C@@H]1C2`, 316 nM. On the same count and under the same terms, the result for `CN(CC1=CC[C@H]2C[C@@H]1C2(C)C)Cc1ccc(-c2cccc(C(F)(F)F)c2)cc1` reads > 316 nM; that for `CC1(C)[C@H]2CC=C(C[N+](C)(C)CCc3ccc(Cl)cc3)[C@@H]1C2`, 1000 nM; that for `Cc1cccc(-c2ccc(CN(C)CC3=CC[C@H]4C[C@@H]3C4(C)C)cc2)c1`, > 316 nM. Still for that read-out and setting: as for `CC1(C)[C@H]2CC=C(C[N+](C)(C)Cc3ccccc3I)[C@@H]1C2`, the figure is 1580 nM; as for `C[N+](C)(C/C1=C/CCCCCC1)Cc1ccc(I)cc1` (mixture of isomers), 1000 nM.

For `CN(CC1=CC[C@H]2C[C@@H]1C2(C)C)Cc1ccc2c3ccccc3n(C)c2c1`, the Ki is > 316 nM. Consider `CC(=O)c1cccc(-c2ccc(CN(C)CC3=CC[C@H]4C[C@@H]3C4(C)C)cc2)c1`, for which the Ki was > 316 nM. `CC1(C)[C@H]2CC=C(C[N+](C)(C)Cc3ccc(Br)cc3)[C@@H]1C2` had a Ki of 316 nM. Same read-out and setting: the result for `CN(CC1=CC[C@H]2C[C@@H]1C2(C)C)Cc1cccc(-c2ccccc2)c1` reads > 316 nM.

In turn, `CN(CC1=CC[C@H]2C[C@@H]1C2(C)C)Cc1ccc(-c2cccc(F)c2)cc1` gave a Ki of 2510 nM.

Regarding `CN(C/C1=C/CCCCCC1)Cc1ccc(I)cc1` (mixture of isomers), the Ki is 7940 nM. Same read-out and setting: as for `Ic1ccc(CNCC2C3CC4CC(C3)CC2C4)cc1` (stereo unspecified), the figure is 2510 nM. Same read-out and setting: as for `CN(Cc1ccc(I)cc1)CC1C2CC3CC(C2)CC1C3` (stereo unspecified), the figure is 7940 nM.

For `CN(CC1=CC[C@H]2C[C@@H]1C2(C)C)Cc1ccc(-c2ccccc2F)cc1`, the Ki was > 316 nM. Still for that read-out and setting: the result for `CC1(C)[C@H]2CC=C(C[N+](C)(C)Cc3ccc(Cl)c(Cl)c3)[C@@H]1C2` reads 398 nM; that for `CN(CC1=CC[C@H]2C[C@@H]1C2(C)C)Cc1ccc(Oc2ccccc2)cc1`, > 316 nM; that for `CC1(C)[C@H]2CC=C(C[N+](C)(C)Cc3ccc(-c4ccccc4F)cc3)[C@@H]1C2`, 631 nM. On the same count and under the same terms, the result for `CN(CC1=CC[C@H]2C[C@@H]1C2(C)C)Cc1ccc(-c2ccsc2)cc1` reads 3980 nM.

As to `CN(CC1=CC[C@H]2C[C@@H]1C2(C)C)Cc1ccc(-c2cccc(Cl)c2)cc1`, the affinity, expressed as Ki, was 3980 nM. As to `CC1(C)[C@H]2CC=C(C[N+](C)(C)Cc3ccc(Oc4ccccc4)cc3)[C@@H]1C2`, the Ki is 2000 nM.

Molecule `CN(CC1=CC[C@H]2C[C@@H]1C2(C)C)Cc1ccc(F)cc1` had a Ki of 6310 nM.

Another assay has as its target T1, C-X-C chemokine receptor type 3. The experiment in a line: Displacement of [125I]-CXCL11 from human CXCR3 expressed in HEK293 cells. It is filed as cell-based.
Conditions: not given
For orientation: Loss of bound radioactivity is the signal in a displacement assay; it reports binding, not function.
Turning to `N=C(Nc1ccc(I)cc1)NC1C2CC3CC(C2)CC1C3` (stereo unspecified), the affinity, expressed as Ki, was 3.98 µM.

The target in the next assay is T2, C-X-C chemokine receptor type 3 (Homo sapiens) (UniProt P49682).
T2 sequence (whole entry): T1 sequence (P49682 whole entry)
The experiment in a line: Antagonist activity at human CXCR3 expressed in HEK293T cells co-expressing Galphaqi5 assessed as inhibition of CXCL10-induced [3H]-inositolphosphates levels. It is filed as functional, cell-based. The settings on record: HEK-293T.
Usually pKb stands for the Kb on a negative log10 scale, so that one unit is a factor of ten. Turning to `CCOc1ccc(-n2c([C@@H](C)N(Cc3cccnc3)C(=O)Cc3ccc(OC(F)(F)F)cc3)nc3ncccc3c2=O)cc1`, the inhibition result was “Dose-dependent effect” and the pKb is 8.
